Entries after “also recorded” stand apart in the source; their conditions may differ. Marks after values point to notes of the source that are not given here.
Key:
[1] = tested on: mouse neuroblastoma (N2a) cells; assay: Quantitative real-time RT-PCR: mRNA expression of mitochondrial dynamics, biogenesis and synaptic genes; assay type: cell-based; details: N2a cells
Protocol: (§1) Tissue culture: The N2a cells were grown for 3 days in a serum-free medium (1:1 mixture of DMEM and OptiMEM, plus penicillin and streptomycin [Invitrogen, Carlsbad, Calif., USA]) until the cells developed neuronal processes.
Quantitative real-time RT-PCR: Using the reagent TriZol (Invitrogen), total RNA was isolated from cell pellets from the 5 N2a cell groups (FIG. 1). Using primer express software (Applied Biosystems, Carlsbad, Calif., USA), the inventors designed the oligonucleotide primers for the housekeeping genes 3-actin, GAPDH, mitochondrial structural genes, fission genes (Drp1, Fis1), fusion genes (MFN1, MFN2, Opa1), biogenesis genes (PGC1c, Nrf1, Nrf2, TFAM), and synaptic genes (synaptophysin and PSD95) (see Table 1 for primer sequences and amplicon sizes). Using SYBR-Green chemistry-based quantitative real-time RT-PCR, mRNA expressions of the above-mentioned genes were measured, as described by Manczak and Reddy.
The mRNA transcript level was normalized against β-actin and the GAPDH at each dilution. The standard curve was the normalized mRNA transcript level, plotted against the log-value of the input cDNA concentration at each dilution. To compare β-actin, GAPDH, and relative quantification was performed according to the (CT) method (Applied Biosystems). […] The ΔCT-value was obtained by subtracting the average β-actin CT value from the average CT-value of the synaptic mitochondrial ETC genes and the mitochondrial structural genes. The ΔCT of untreated cells was used as the calibrator. The fold change was calculated according to the formula 2^-(Δ ΔCT), where ΔΔCT is the difference between ΔCT and the ΔCT calibrator value. To determine the statistical significance of mRNA expression, the CT value differences between the untreated cells and other experimental groups of cells were used in relation to β-actin normalization. Statistical significance was calculated, using one-way ANOVA.

N2a cells [2] = assay: Cell viability (MTT assay); assay type: cell-based, mouse
Protocol: as §1
The N2a cells from all 5 groups (4 treatment groups and 1 control group) were harvested, and their cell pellets were collected and used for quantitative real-time RT-PCR, immunoblotting analysis of mitochondrial and synaptic proteins, and mitochondrial functional assays for hydrogen peroxide production, lipid peroxidation, cytochrome c oxidase activity, and MTT determination. Isolated mitochondria from N2a cells from all 5 groups were used to determine mitochondrial ATP as described in Reddy et al..

N2a cells [3] = assay: H2O2 production (Amplex Red H2O2 assay); assay type: cell-based, mouse
Protocol: as §1
Mitochondrial functional assays. H2O2 production: Using an Amplex® Red H2O2 assay kit (Molecular Probes, Eugene, Oreg., USA), H2O2 production was measured using cell pellets, as described in Manczak and Reddy. Briefly, H2O2 production was measured in the protein lysates prepared from cell pellets of control untreated N2a cells and 4 treatment groups (FIG. 1). A BCA protein assay kit (Pierce Biotechnology) was used to estimate protein concentration. The reaction mixture contained mitochondrial proteins (μg/μl), Amplex Red reagents (50 μM), horseradish peroxidase (0.1 U/ml), and a reaction buffer (1×). The mixture was incubated at room temperature for 30 minutes, followed by spectrophotometer readings of fluorescence (570 nm). Finally, H2O2 production was determined, using a standard curve equation expressed in nmol/μg mitochondrial protein.

N2a cells [4] = assay: Soluble Aβ42 levels by sandwich ELISA; assay type: cell-based, mouse; details: vs N2a cells treated only with Aβ42
Protocol: as §1
Briefly, protein lysates from untreated control N2a cells and lysates from 4 treatment groups were homogenized in a Tris-buffered saline (pH 8.0) containing protease inhibitors ([…] pepstatin A, aprotinin, phophsoramidon, and leupeptin; 0.5 mM phenylmethanesulfonyl fluoride and 1 mM ethyleneglycol-bis(flaminoethyl ether)-NN tetraacetic acid). Samples were sonicated briefly and centrifuged at 10,000 g for 20 min at 4° C. The soluble fraction was used to determine the soluble Aβ by ELISA. For each sample, Aβ1-40 and Aβ1-42 were measured with commercial colorimetric ELISA kits (Biosource International, Camarillo, Calif., USA) that were specific for each species. A 96-well plate reader was used, following the manufacturer's instructions. Each sample was run in duplicate. Protein concentrations of the homogenates were determined following the […], and Aβ was expressed as pg Aβ/mg protein.

[5] = Aβ42 6 hrs then Mdivi1 24 hrs (Aβ42+Mdivi1), vs Aβ42 treated cells
[6] = Aβ42 6 hrs then Mdivi1 24 hrs (Aβ42+Mdivi1), vs untreated N2a cells
[7] = Mdivi1 24 hrs or Aβ42 20 μM 6 hrs alone, vs untreated N2a cells
[8] = Mdivi1 24 hrs then Aβ42 6 hrs (Mdivi1+Aβ42), vs Aβ42 treated cells
[9] = Mdivi1 24 hrs then Aβ42 6 hrs (Mdivi1+Aβ42), vs untreated N2a cells

With `COc1cc(-n2c(S)nc3ccccc3c2=O)c(Cl)cc1Cl` [Mdivi1, 3-(2,4-Dichloro-5-methoxyphenyl)-2,3-dihydro-2-thioxo-4(1H)-quinazolinone] as the compound, how does the “Drp1 mRNA expression level, lower by fold” value [1, 5] read?
The value was 1.5 fold.

What about the “Drp1 mRNA fold change” value [1, 5] of the same compound?
Its value is −1.5* fold.

And the “Fis1 mRNA expression level, lower by fold” value [1, 5]?
Its value is 1.7 fold.

And the “Fis1 mRNA fold change” value [1, 5]?
Its value is −1.7* fold.

And the “Mfn1 mRNA fold change” value [1, 5]?
The value was 1.6 fold.

And the “Mfn2 mRNA fold change” value [1, 5]?
Its value is 1.6 fold.

And the “Nrf1 mRNA fold change” value [1, 5]?
Its value is 2.0 fold.

What about the “OPA1 mRNA fold change” value [1, 5] of the same compound?
Its value is 1.3 fold.

What about the “PGC1α mRNA fold change” value [1, 5] of the same compound?
The value was 8.1 fold.

And the “Synaptophysin mRNA fold change” value [1, 5]?
The value was 1.5 fold.

What about the “CypD mRNA level” value [1, 6] of the same compound?
The value was “unchanged”.

What about the “PGC1α mRNA fold change” value [1, 6] of the same compound?
Its value is 1.4 fold.

What about the “PSD95 mRNA fold change” value [1, 6] of the same compound?
Its value is 4.8 fold.

What about the “Synaptophysin mRNA fold change” value [1, 6] of the same compound?
Its value is 1.2 fold.

And the “TFAM mRNA fold change” value [1, 6]?
Its value is 1.2 fold.

What about the “Drp1 mRNA fold change” value [1, 7] of the same compound?
Its value is −1.5* fold.

And the “Drp1 mRNA level, fold decrease” value [1, 7]?
The value was 1.5 fold.

And the “Fis1 mRNA fold change” value [1, 7]?
The value was −1.3 fold.

And the “Fis1 mRNA level, fold decrease” value [1, 7]?
Its value is 1.3 fold.

And the “Mfn1 mRNA fold change” value [1, 7]?
Its value is 1.3 fold.

What about the “Mfn2 mRNA fold change” value [1, 7] of the same compound?
Its value is 1.2 fold.

And the “Nrf1 mRNA fold change” value [1, 7]?
The value was 2.2 fold.

What about the “Nrf2 mRNA fold change” value [1, 7] of the same compound?
The value was 1.6 fold.

What about the “OPA1 mRNA fold change” value [1, 7] of the same compound?
The value was 1.2 fold.

What about the “PGC1α mRNA fold change” value [1, 7] of the same compound?
The value was 2.2 fold.

And the “PSD95 mRNA fold change” value [1, 7]?
Its value is 5.1 fold.

What about the “Synaptophysin mRNA fold change” value [1, 7] of the same compound?
The value was 1.3 fold.

And the “TFAM mRNA fold change” value [1, 7]?
The value was 1.5 fold.

What about the “Drp1 mRNA expression level, lower by fold” value [1, 8] of the same compound?
Its value is 1.5 fold.

And the “Drp1 mRNA fold change” value [1, 8]?
Its value is −1.5* fold.

And the “Fis1 mRNA expression level, lower by fold” value [1, 8]?
Its value is 1.6 fold.

And the “Fis1 mRNA fold change” value [1, 8]?
The value was −1.6* fold.

And the “Mfn2 mRNA fold change” value [1, 8]?
Its value is 2.2 fold.

What about the “Nrf1 mRNA fold change” value [1, 8] of the same compound?
Its value is 2.7 fold.

What about the “Nrf2 mRNA fold change” value [1, 8] of the same compound?
The value was 2.7 fold.

And the “OPA1 mRNA fold change” value [1, 8]?
The value was 2.3 fold.

What about the “PGC1α mRNA fold change” value [1, 8] of the same compound?
Its value is 6.5 fold.

And the “PSD95 mRNA fold change” value [1, 8]?
The value was 3.8 fold.

What about the “Synaptophysin mRNA fold change” value [1, 8] of the same compound?
The value was 2.2 fold.

And the “TFAM mRNA fold change” value [1, 8]?
The value was 3.2 fold.

And the “Drp1 mRNA fold change” value [1, 9]?
The value was −1.1 fold.

And the “Fis1 mRNA fold change” value [1, 9]?
Its value is −1.2 fold.

What about the “Mfn1 mRNA fold change” value [1, 9] of the same compound?
The value was 2.1 fold.

What about the “Mfn2 mRNA fold change” value [1, 9] of the same compound?
Its value is 1.7 fold.

What about the “Nrf1 mRNA fold change” value [1, 9] of the same compound?
The value was 1.3 fold.

And the “Nrf2 mRNA fold change” value [1, 9]?
Its value is 1.3 fold.

And the “OPA1 mRNA fold change” value [1, 9]?
The value was 1.9 fold.

And the “PGC1α mRNA fold change” value [1, 9]?
Its value is 1.1 fold.

And the “PSD95 mRNA fold change” value [1, 9]?
The value was 1.5 fold.

And the “Synaptophysin mRNA fold change” value [1, 9]?
Its value is 1.7 fold.

What about the “TFAM mRNA fold change” value [1, 9] of the same compound?
The value was 1.3 fold.

And the Cell viability (N2a cells [2]; Aβ42 6 hrs then Mdivi1 24 hrs (Aβ42+Mdivi1), vs N2a+Aβ42)?
Its Cell viability is “higher”.

What about the Cell viability (N2a cells [2]; [7]) of the same compound?
Its Cell viability is “significantly higher”.

What about the Cell viability (N2a cells [2]; Mdivi1 24 hrs then Aβ42 6 hrs (Mdivi1+Aβ42), vs N2a+Aβ42) of the same compound?
The Cell viability was “higher”.

And the H2O2 levels (N2a cells [3]; Aβ42 6 hrs then Mdivi1 24 hrs (Aβ42+Mdivi1), vs N2a+Aβ42 cells)?
Its H2O2 levels is “significantly lower”.

And the H2O2 levels (N2a cells [3]; [6])?
The H2O2 levels was “unchanged”.

And the H2O2 levels (N2a cells [3]; Mdivi1 24 hrs then Aβ42 6 hrs (Mdivi1+Aβ42), vs N2a+Aβ42 cells)?
Its H2O2 levels is “significantly lower”.

What about the H2O2 levels (N2a cells [3]; [9]) of the same compound?
The H2O2 levels was “unchanged”.

And the Aβ42 levels (N2a cells [4]; Aβ42 6 hrs then Mdivi1 24 hrs (Aβ42+Mdivi1, curative))?
The Aβ42 levels was “Significantly reduced; also recorded: significantly lower”.

And the Aβ42 levels (N2a cells [4]; Mdivi1 24 hrs then Aβ42 6 hrs (Mdivi1+Aβ42, preventive))?
Its Aβ42 levels is “Significantly reduced; also recorded: significantly lower”.

Reference: patent US20190307749A1, “Mitochondria-Division Inhibitor 1 Protects Against Amyloid-B Induced Mitochondrial Fragmentation and Synaptic Damage in Alzheimer's Disease” (Texas Tech University System, priority 2018, published 2019)
